Measured values reported in patent US20180214519A1, “COMBINATION THERAPIES FOR MODULATION OF HISTONE METHYL MODIFYING ENZYMES” (Constellation Pharmaceuticals, Inc., priority 2015, published 2018).
Like-named read-outs stand apart in the source and are kept apart here.

Assays:
[1] = tested on: PC9 cells; test: RNA-sequencing and gene set enrichment analysis in PC9 cells; type: cell-based; settings: 2.5 μM pre-treatment 8 days then 1 μM erlotinib; compared to DMSO pre-treated/erlotinib acutely treated cells
From the text: For RNA sequencing (RNA-seq) experiments, RNA was submitted to Ocean Ridge Biosciences (Palm Beach Gardens, Fla.) for quality control, library preparation and sequencing. Samples were processed as per the vendor's protocols (http://www.oceanridgebio.com/rna-sequencing.html). Data was processed as previously described (ibid).
Experimental gene lists pre-ranked by differential expression were compared against gene sets in the Molecular Signature Database (MSigDB), v4.0 (http://www.broadinstitute.org/gsea/msigdb/index.jsp). GSEA analyses were run using the weighted scoring option, meandiv normalization, and excluding MSigDB gene sets with more than 1500 or fewer than 15 member genes.
For transcriptomic analysis of PC9 cells, cells were pretreated for 8 days with 2.5 μM CPI-360, with one splitting event and reapplication of fresh drug at day 4. On day 8, without splitting, 0.1% (v/v) DMSO or 1 μM erlotinib was added directly to each vessel, mixed, and incubated for 6 or 24 hours before harvesting. Cells were harvested by aspiration of media, and direct application of buffer RLT to the cell culture plate. RNA was purified as described above.
PC9 cells were pre-treated with 2.5 μM Inhbitor 2 or DMSO for 8 days, with splitting, re-seeding and compound re-fresh at day 4. […] RNA was extracted, and analyzed via RNA-sequencing, then gene set enrichment analysis using msigdb v4.0 (all categories). […]

[2] = tested on: PC9 NucRed cells
Method: The non-small cell lung cancer (NSCLC) cell line PC9 was transduced with virus expressing nuclear-restricted RFP (NucRed, Essen Biosciences NucLight), and selected with zeocin (Invivogen). […] Every 3-4 days, media was removed, cells were washed with PBS, and fresh growth media containing 1 μM erlotinib was added. DTPs are defined as cells maintaining red fluorescence, while remaining in a non-proliferative state. After a period of time, DTPs regain proliferative capacity, at which point they are deemed drug tolerant expanded persisters (DTEPs) (ibid). Cells were maintained in 12 well dishes in an Incucyte ZOOM (Essen Biosciences) positioned in a humidified tissue culture incubator for the length of each experiment. Whole well phase and fluorescent images were obtained every 12 hours by the Incucyte ZOOM, and cell number quantified using an automated algorithm defined from a training set of images that identifies red fluorescent signal (positive signal pseudocolored blue in figures). In each experiment, relative cell number is quantitated by dividing cell number at each time point by the initial cell number for each well. In some instances, PC9 NucRed cells were pretreated with EZH2 inhibitors, before counting and reseeding at 5×10^4 cells per well for DTP generation assays as described above.
48 hours later, 1 μM erlotinib was added to the cells, and images were obtained every 12 hours via the Incucyte imaging system. […] FIG. 15c is a schematic of experimental design for FIG. 15d and FIG. 15e PC9 NucRed cells were pre-treated with Inhbitor 1 as in FIG. 15a and FIG. 15b, however after 48 hours, were treated with 0.1% DMSO instead of erlotinib.
Media with fresh compounds was changed every 3-4 days. Phase and fluorescent images obtained every 12 hours with Incucyte imaging platform. Cell number determined by red fluorescent nuclei detection by Incucyte.

[3] = tested on: KARPAS-422 cells; test: Cell viability assay (Cell Titer Glo) in KARPAS-422 cells; type: cell-based; settings: EZH2 mutant-containing DLBCL cell line KARPAS-422; viability monitored at day 4, day 8 and day 12
Method: For suspension cell lines, cells were seeded at their pre-determined optimal seeding density in a 96 well dish in a volume of 70-90 μl, depending on the number of compounds under investigation in a single assay (i.e. single agent assay versus combination assay). A 10× stock solution of the highest desired concentration of the compound of interest was made in growth media. In parallel, a solution containing the same % of diluent as the 10× compound concentration was made for each compound under investigation, also in growth media. Compound was diluted serially in the diluent/growth media solution, and 10 μl of 10× drug was added to the relevant wells of the 96 well dish containing cells. […] Cells were cultured in the presence of compound for 4 days, at which point 100 μl growth media was added, cells were triturated, and the cell density of the diluent only control treatment was determined. A split ratio was determined based on this density, such that the new cell density of diluent treated cells after splitting would match the original cell density from day 0. […] 50 μl CTG reagent was added to all wells containing cells that remained in the original 96 well dish, followed by a 30 min incubation on an orbital shaker, before a luminescence reading was obtained on a Perkin-Elmer Envision. […]

[4] = pre-treatment 4 days, then 1 μM erlotinib, compared to erlotinib only treated cells

**Q.** `COc1cc(C)[nH]c(=O)c1CNC(=O)c1c(C)n([C@H](C)C2CCOCC2)c2ccccc12` [Inhibitor 2] was tested. Which “altered pathways (gene set enrichment analysis)” value [1] did it give?
**A.** 3 out of the top 5 altered pathways are interferon-related pathways

**Q.** Which “reduction in cell number” value ([2]; 5 μM pre-treatment followed by acute 1 μM erlotinib, compared to DMSO pretreatment, acute erlotinib treatment) does the source give for `CCS(=O)(=O)N1CCC([C@@H](C)n2c(C)c(C(=O)NCc3c(OC)cc(C)[nH]c3=O)c3ccccc32)CC1` [Inhibitor 1] here?
**A.** 80%

**Q.** What about the “reduction in cell number” value ([2]; 5 μM pretreatment for 4 days, then acute DMSO treatment, compared to DMSO pretreated cells) of the same molecule?
**A.** 15%

**Q.** What about the “drug tolerant persister (DTP) cells remaining after initial erlotinib treatment” value [2, 4] of the same molecule?
**A.** a reduction in the number of drug tolerant persister (DTP) cells

**Q.** What about the “initiation of cell growth inhibition” value [2, 4] of the same molecule?
**A.** faster initiation of cell growth inhibition

**Q.** And the “outgrowth of erlotinib-resistant cells” value [2, 4]?
**A.** delayed/reduced outgrowth of erlotinib-resistant cells

**Q.** And the “sensitivity of cell viability to treatment” value [3]?
**A.** temporal sensitivity

**Q.** Which GI90 dose ([2]; PC9 cells) does the source give for `C#Cc1cccc(Nc2ncnc3cc(OCCOC)c(OCCOC)cc23)c1` [erlotinib, reference compound] here?
**A.** 1000 nM
